In the NIST ThermoML archive (doi:10.1016/j.jct.2014.05.003):
Numbers after ± are expanded uncertainties.

How the values were obtained:
[1] = wn = mass fraction of the nth substance listed; conditions: 298.15 K, 100 kPa, Liquid, Vibrating tube method
[2] = relative permittivity at zero frequency (dimensionless); wn = mass fraction of the nth substance listed; conditions: 298.15 K, 100 kPa, Liquid, Coaxial cylinder capacitor

Row | SMILES | mass density ([1]; w1 = 0.1) | mass density ([1]; w1 = 0.2) | mass density ([1]; w1 = 0.3) | relative permittivity at zero frequency ([2]; w1 = 0.1) | relative permittivity at zero frequency ([2]; w1 = 0.2) | relative permittivity at zero frequency ([2]; w1 = 0.3)
1 | CC(=O)N(C)C [N,N-dimethylethanamide] + O | 995.7 ± 1 kg/m3 | 996.2 ± 1 kg/m3 | 997.3 ± 1 kg/m3 |  |  | 
2 | CN(C)C=O [dimethylformamide] + O | 996.3 ± 1 kg/m3 | 996.4 ± 1 kg/m3 | 996.9 ± 1 kg/m3 | 76.8 ± 0.2 | 74.6 ± 0.2 | 72.2 ± 0.2
